Drawing on US8735417B2, “Aminopyrimidines as Syk inhibitors” (Merck Sharp & Dohme Corp., priority 2009, dated 2014), this text covers IC50 for 58 compounds.

Each structure is given as a SMILES string.

The experiment deals with T1, recombinant human GST-SYK (Homo sapiens, UniProt P43405).
T1 construct: purchased Carna Biosciences 08-176
Description: Homogeneous Time-Resolved Fluorescence (HTRF) assay for the recombinant human SYK enzyme. The conditions noted are these: recombinant human GST-SYK 5 pM, ATP 25 μM, 10-dose titration; read-out: rhSYK Activity (IC50). The format is biochemical. As for the experimental part: Homogeneous Time-Resolved Fluorescence (HTRF) Assay for the Recombinant Human SYK Enzyme:
A recombinant GST-hSYK fusion protein was used to measure potency of compounds to inhibit human SYK activity. The recombinant human GST-SYK (Carna Biosciences #08-176) (5 pM final concentration) was incubated with various concentrations of the inhibitor diluted in DMSO (0.1% final concentration) for 10 minutes at room temperature in 15 mM Tris-HCl (pH 7.5), 0.01% tween 20, 2 mM DTT in 384 well plate format. To initiate the reaction the biotinylated substrate peptide (250 nM final concentration) that contains the phosphorylation site for SYK was added with magnesium (5 mM final concentration) and ATP (25 μM final concentration). Final volume of the reaction was 10 μL. Phosphorylation of the peptide was allowed to proceed for 45′ at room temperature. To quench the reaction and detect the phosphorylated product, 2 nM of a Europium-atiti-phosphotyrosine antibody (Perkin Elmer #AD0161) and 70 nM SA-APC (Perkin-Elmer #CR130-100) were added together in 15 mM Tris pH 7.5, 40 mM EDTA, 0.01% tween 20. Final volume of the quenching solution was 10 μL. The resulting HTRF signal was measured after 30 minutes on a EnVision (Perkin-Elmer) reader using a time-resolved fluorescence protocol.
In general terms: TR-FRET usually uses a lanthanide donor and a delayed reading to cut background.
For `Cc1cc(Nc2nccc(C(F)(F)F)n2)cc(-c2cnc(N3CCCNC(=O)C3)s2)c1` [Example 226, 4-[5-(3-methyl-5-{[4-(trifluoromethyl)pyrimidin-2-yl]amino}phenyl)-1,3-thiazol-2-yl]-1,4-diazepan-2-one], the IC50 is not above 100 nM.
As for `FC(F)(F)c1ccnc(Nc2cccc(-c3cnc(NCc4ccccn4)s3)c2)n1` [Example 37], the figure is not above 100 nM.
Turning to `COCCNc1ncc(-c2cccc(Nc3nccc(C(F)(F)F)n3)c2)s1` [Example 5], the IC50 is not above 100 nM.
`OCCC1CCN(c2ncc(-c3cccc(Nc4nccc(C(F)(F)F)n4)c3)s2)CC1` [Example 141]: the half-maximal inhibitory concentration (IC50) is not above 100 nM.
Turning to `Cc1cc(Nc2nccc(OCCO)n2)cc(-c2cnc(N3CCCNC(=O)C3)s2)c1` [Example 218], the IC50 was not above 100 nM.
Take `O=C1OCCN1c1ncc(-c2cccc(Nc3nccc(C(F)(F)F)n3)c2)s1` [Example 175, 3-[5-(3-{[4-(trifluoromethyl)pyrimidin-2-yl]amino}phenyl)-1,3-thiazol-2-yl]-1,3-oxazolidin-2-one]: the IC50 is not above 100 nM.
Turning to `OC1CCN(c2ncc(-c3cccc(Nc4nccc(C(F)(F)F)n4)c3)s2)C1` (stereo not shown) [Example 158], the IC50 is not above 100 nM.
For the compound `Cc1cc(Nc2ncc(Cl)c(C)n2)cc(-c2cnc(N3CCCNC(=O)C3)s2)c1` [Example 211, 4-(5-{3-[(5-Chloro-4-methylpyrimidin-2-yl)amino]-5-methylphenyl}-1,3-thiazol-2-yl)-1,4-diazepan-2-one], the IC50 is not above 100 nM.
With `CSc1ccnc(Nc2cc(C)cc(-c3cnc(N4CCCNC(=O)C4)s3)c2)n1` [4-[5-(3-methyl-5-{[4-(methylsulfanyl)pyrimidin-2-yl]amino}phenyl)-1,3-thiazol-2-yl]-1,4-diazepan-2-one], the IC50 is not above 100 nM.
In the case of `C=CCOC(=O)N1CCN(c2ncc(-c3cccc(Nc4nccc(C(F)(F)F)n4)c3)s2)C(CO)C1` (stereo not shown) [Example 126] it was 100 to 1000 nM; in that of `Cc1cc(Nc2nccc(C(F)(F)F)n2)cc(-c2cnc(NC(C)c3cccnc3)s2)c1` (stereo not shown) [Example 99], not above 100 nM.
On to `OCCOCCNc1ncc(-c2cccc(Nc3nccc(C(F)(F)F)n3)c2)s1` [Example 72], for which the IC50 is not above 100 nM.
As for `Cc1ccnc(Nc2cccc(-c3csc(N4CCC(C(=O)O)CC4)n3)c2)n1` [Example 231, 1-(4-{3-[(4-methylpyrimidin-2-yl)amino]phenyl}-1,3-thiazol-2-yl)piperidine-4-carboxylic acid], the figure is 100 to 1000 nM; as for `CCC(C)Nc1ncc(-c2cccc(Nc3nccc(C(F)(F)F)n3)c2)s1` (stereo not shown) [Example 42], not above 100 nM.
For `OCCCCNc1ncc(-c2cccc(Nc3nccc(C(F)(F)F)n3)c2)s1` [Example 18], the IC50 was not above 100 nM.
As to `CC(=O)N1CCCN(c2ncc(-c3cccc(Nc4nccc(C(F)(F)F)n4)c3)s2)CC1` [Example 169], the concentration for half-maximal inhibition (IC50) was not above 100 nM.
On to `CNc1ncc(-c2cccc(Nc3nccc(C(F)(F)F)n3)c2)s1` [Example 21], for which the IC50 is not above 100 nM.
As to `Cc1cc(Nc2nccc(C(F)(F)F)n2)cc(-c2cnc(NCc3cnsc3)s2)c1` [Example 104], the IC50 was not above 100 nM.
As for `OCCC1CCCN(c2ncc(-c3cccc(Nc4nccc(C(F)(F)F)n4)c3)s2)C1` (stereo not shown) [Example 142], the figure is not above 100 nM.
In the case of `Cc1cc(Nc2nccc(C(F)(F)F)n2)cc(-c2cnc(N3CCn4ccnc4C3)s2)c1` [Example 173], the IC50 was not above 100 nM.
In the case of `CCCCSc1ccnc(Nc2cc(C)cc(-c3cnc(N4CCCNC(=O)C4)s3)c2)n1` [Example 217, 4-[5-(3-{[4-(butylsulfanyl)pyrimidin-2-yl]amino}-5-methyphenyl)-1,3-thiazol-2-yl]-1,4-diazepan-2-one] it was not above 100 nM; in that of `FC(F)(F)c1ccnc(Nc2cccc(-c3cnc(NCc4c[nH]nc4-c4ccccc4)s3)c2)n1` [Example 78], 100 to 1000 nM; in that of `COc1ccc(CCNc2ncc(-c3cccc(Nc4nccc(C(F)(F)F)n4)c3)s2)cc1` [Example 54], 100 to 1000 nM.
In the case of `OCC1CCCN(c2ncc(-c3cccc(Nc4nccc(C(F)(F)F)n4)c3)s2)C1` (stereo not shown) [Example 134] it was not above 100 nM; in that of `Cc1cc(Nc2nccc(C(F)(F)F)n2)cc(-c2cnc(NCc3cnsn3)s2)c1` [Example 105], not above 100 nM.
As for `CCCCN(CCO)c1ncc(-c2cccc(Nc3nccc(C(F)(F)F)n3)c2)s1` [Example 6], the IC50 was not above 100 nM.
As for `OC1COCC1Nc1ncc(-c2cccc(Nc3nccc(C(F)(F)F)n3)c2)s1` (stereo not shown) [Example 12], the figure is not above 100 nM.
As to `NC1CCN(c2ncc(-c3cccc(Nc4nccc(C(F)(F)F)n4)c3)s2)CC1` [Example 143], the IC50 is not above 100 nM.
In the case of `FC(F)(F)c1ccnc(Nc2cccc(-c3cnc(NCc4cccc(-n5cccn5)c4)s3)c2)n1` [Example 76] it was not above 100 nM; in that of `O[C@H]1CC[C@H](Nc2ncc(-c3cccc(Nc4nccc(C(F)(F)F)n4)c3)s2)CC1` [Example 19], not above 100 nM; in that of `CC(=O)OCC(=O)Nc1ncc(-c2cccc(Nc3nccc(C(F)(F)F)n3)c2)s1` [Example 182, 2-oxo-2-{[5-(3-{[4-(trifluoromethyl)pyrimidin-2-yl]amino}phenyl)-1,3-thiazol-2-yl]amino}ethyl acetate], not above 100 nM.
In the case of `Cc1cc(CNc2ncc(-c3cccc(Nc4nccc(C(F)(F)F)n4)c3)s2)no1` [Example 83] it was not above 100 nM; in that of `FC(F)(F)c1ccnc(Nc2cccc(-c3cnc(NCc4cccc(N5CCCCC5)c4)s3)c2)n1` [Example 57], 1000 to 10000 nM; in that of `CC1(O)CN(c2ncc(-c3cccc(Nc4nccc(C(F)(F)F)n4)c3)s2)C1` [Example 154], not above 100 nM.
As to `CCSc1ccnc(Nc2cc(C)cc(-c3cnc(N4CCCNC(=O)C4)s3)c2)n1` [Example 221], the IC50 was not above 100 nM.
Regarding `Nc1cc(Nc2nccc(C(F)(F)F)n2)cc(-c2cnc(NCCO)s2)c1` [Example 190], the IC50 is not above 100 nM.
In the case of `Cc1cc(Nc2nccc(C(F)(F)F)n2)cc(-c2cnc(N3CC4CNC(CO)C4C3)s2)c1` (stereo not shown) [Example 165] it was not above 100 nM.
Take `CS(=O)(=O)Nc1ncc(-c2cccc(Nc3nccc(C(F)(F)F)n3)c2)s1` [Example 177]: the IC50 was not above 100 nM.
`Cc1cc(Nc2nccc(C(F)(F)F)n2)cc(-c2cnc(NCCc3ccncc3)s2)c1` [Example 118]: the IC50 is not above 100 nM.
On to `OC1CCN(c2ncc(-c3cccc(Nc4nccc(C(F)(F)F)n4)c3)s2)CC1` [Example 129], for which the IC50 was not above 100 nM.
As for `C=CCN(CC=C)c1ncc(-c2cccc(Nc3nccc(C(F)(F)F)n3)c2)s1` [Example 25], the figure is not above 100 nM.
On to `COCC(O)CNc1ncc(-c2cccc(Nc3nccc(C(F)(F)F)n3)c2)s1` (stereo not shown) [Example 50], for which the IC50 was not above 100 nM.
In the case of `Cc1cc(CNc2ncc(-c3cccc(Nc4nccc(C(F)(F)F)n4)c3)s2)n(C)n1` [Example 69] it was not above 100 nM.
`Cc1cc(Nc2nccc(C(F)(F)F)n2)cc(-c2cnc(NCCO)s2)c1` [Example 28]: the IC50 is not above 100 nM.
With `Cc1ccsc1CNc1ncc(-c2cccc(Nc3nccc(C(F)(F)F)n3)c2)s1` [Example 75], the half-maximal inhibitory concentration (IC50) lay in the range of 1000 to 10000 nM.
For the compound `CN(Cc1ccccc1)c1ncc(-c2cccc(Nc3nccc(C(F)(F)F)n3)c2)s1` [Example 48], the IC50 was in the range of 100 to 1000 nM.
In the case of `Cc1nn(C)c(C)c1CNc1ncc(-c2cccc(Nc3nccc(C(F)(F)F)n3)c2)s1` [Example 79] it was not above 100 nM.
As for `Fc1c(CNc2ncc(-c3cccc(Nc4nccc(C(F)(F)F)n4)c3)s2)cccc1C(F)(F)F` [Example 64], the figure is 100 to 1000 nM.
Take `Cc1cc(Nc2nccc(C(F)(F)F)n2)cc(-c2cnc(N3CCN(C(=O)c4ccc5cc[nH]c5c4)CC3)s2)c1` [Example 128]: the IC50 is not above 100 nM.
In the case of `FC1CCN(c2ncc(-c3cccc(Nc4nccc(C(F)(F)F)n4)c3)s2)CC1` [Example 140] it was 100 to 1000 nM.
As for `OCCN(CCO)c1ncc(-c2cccc(Nc3nccc(C(F)(F)F)n3)c2)s1` [Example 3], the 50% inhibitory concentration (IC50) is not above 100 nM.
For `CN(c1ncc(-c2cccc(Nc3nccc(C(F)(F)F)n3)c2)s1)C1CCOC1` (stereo not shown) [Example 36], the IC50 is not above 100 nM.
`Cc1cc(Nc2nccc(C(F)(F)F)n2)cc(-c2sc(N3CCCNC(=O)C3)nc2Cl)c1` [Example 228, 4-[4-chloro-5-(3-methyl-5-{[4-(trifluoromethyl)pyrimidin-2-yl]amino}phenyl)-1,3-thiazol-2-yl]-1,4-diazepan-2-one]: the IC50 is not above 100 nM.
`CCNC(=O)Nc1cc(Nc2nccc(C(F)(F)F)n2)cc(-c2cnc(NCCO)s2)c1` [Example 188]: the IC50 was not above 100 nM.
For the compound `Cc1cc(Nc2ncc(C3CC3)cn2)cc(-c2cnc(N3CCCNC(=O)C3)s2)c1` [Example 202], the half-inhibitory concentration (IC50) was not above 100 nM.
Turning to `OCCN(CCO)c1ncc(-c2cc(Nc3nccc(C(F)(F)F)n3)cc(N3CCOCC3)c2)s1` [Example 194, 2,2′-({5-[3-(morphpholin-4-yl)-5-{[4-(trifluoromethyl)pyrimidin-2-yl]amino}phenyl]-1,3-thiazol-2-yl}imino)diethanol], the IC50 was not above 100 nM.
In the case of `CN(CC(O)c1ccccc1)c1ncc(-c2cccc(Nc3nccc(C(F)(F)F)n3)c2)s1` (stereo not shown) [Example 7] it was not above 100 nM.
Take `Cc1cc(Nc2nccc(C(F)(F)F)n2)cc(-c2cnc(N(C)Cc3nc4ccccc4o3)s2)c1` [Example 102]: the IC50 is 100 to 1000 nM.

For orientation: IC50 means the concentration needed to halve the response being measured.
